In patent US20240308987A1, “SMALL MOLECULE INHIBITOR AGAINST NASOPHARYNGEAL CARCINOMA, PREPARATION METHOD AND APPLICATION THEREOF” (SHENZHEN BAY LABORATORY, priority 2021, published 2024):

Tested on: C666-1 cells
Experiment: C666-1 Cell Viability Assay (Resazurin cytotoxicity test)
Type: cell-based
Conditions: Homo sapiens, C6661, EB virus-positive C666-1 cells, 72 hours treatment, 100-0.78 micromole/L, read-out: Inhibitory Rate
Experimental: In order to evaluate the inhibitory effect of the small molecular compound of the present disclosure on EBNA1 at the cellular level, a cytotoxicity test was performed.
As mentioned in the Background of the present disclosure, nasopharyngeal carcinoma is a kind of disease highly associated with latent infection of EB virus. EB virus in latent state only expresses limited proteins to maintain its genome replication, among which EBNA1 protein is an essential functional protein. Studies have confirmed that inhibition of EBNA1 can reduce the proliferation of the corresponding nasopharyngeal carcinoma cells or kill them. Therefore, EB virus-positive nasopharyngeal carcinoma tumor cells (C666-1 cells) are selected for test to verify the effect of the small molecular compound of the present disclosure.
During testing, 100 microliters of different cell lines were inoculated onto a transparent 96-well plate, and 5×10^3 cells were inoculated in each well for C666-1 cells. After the cells were cultured in an incubator under […] at 37° C. for 24 hours, 10 microliters of compound with a concentration ranging from 1 mmol/L to 7.8 micromol/L were added to each well (8 points, double dilution, the final concentration was 100-0.78 micromole/L), and treated in the incubator under carbon dioxide at 37° C. for 72 hours. Cell viability was assessed using the redox indicator Resazurin. After addition of 10 microliters of 600 micromole/liter Resazurin to each well and incubation at 37° C. for 3 hours. Using a Tecan microplate reader, the fluorescence signals were detected at an […]. A software was used to fit the inhibition curve and calculate half-maximal effect concentration (EC50). The selectivity of compound activity was assessed by comparing the EC50 values of EB virus-positive and EB virus-negative cell lines.

Structure (SMILES)	EC50 [µM]
COC(=O)c1cccc(N2CC(Oc3ccc(CCc4cccnc4)cc3)C2)c1-n1cccc1 [Example 29, methyl 3-(3-(4-(2-(pyridin-3-yl)ethyl)phenoxy)azetidin-1-yl)-2-(1H-pyrrol-1-yl) benzoate]	> 50
O=C(Nc1ccc(OC2CN(c3cccc(C(=O)O)c3-c3ccccc3)C2)cc1)Nc1cccnc1 [Example 42a, 6-(3-(4-(3-(pyridin-3-yl)ureido)phenoxy)azetidin-1-yl)-[1,1′-biphenyl]-2-carboxylic acid]	1 to 10
O=C(O)c1cccc(N2CC(Oc3ccc(COc4ncccn4)cc3)C2)c1-n1cccc1 [Example 11a, 3-(3-(4-((pyrimidin-2-yloxy)methyl)phenoxy)azetidin-1-yl)-2-(1H-pyrrol-1-yl) benzoic acid]	> 50
O=C(Cc1ccc(OC2CN(c3cccc(C(=O)O)c3-n3cccc3)C2)cc1)Nc1ccccc1 [Example 35a, 3-(3-(4-(2-oxo-2-(phenylamino)ethyl)phenoxy)azetidin-1-yl)-2-(1H-pyrrol-1-yl) benzoic acid]	> 50
O=C(Cc1ccc(OC2CN(c3cccc(C(=O)O)c3-c3ccccc3)C2)cc1)Nc1cccnc1 [Example 40a, 6-(3-(4-(2-oxo-2-(pyridin-3-ylamino)ethyl)phenoxy)azetidin-1-yl)-[1,1′-biphenyl]-2-carboxylic acid]	1 to 10
O=C(Nc1ccc(OC2CN(c3cccc(C(=O)NO)c3-c3ccccc3)C2)cc1)Nc1cccnc1 [Example 42b, N-hydroxy-6-(3-(4-(3-(pyridin-3-yl)ureido)phenoxy)azetidin-1-yl)-[1,1′-biphenyl]-2-carboxamide]	< 1
COC(=O)c1cccc(C#Cc2ccc(NC(=O)Nc3cccnc3)cc2)c1-c1cccc(O)c1 [Example 63, methyl 3′-hydroxyl-6-((4-(3-(pyridin-3-yl)ureido)phenyl)ethynyl)-[1,1′-biphenyl]-2-carboxylate]	< 1
COC(=O)c1cccc(N2CC(Oc3ccc(COc4cnccn4)cc3)C2)c1-n1cccc1 [Example 13, methyl 3-(3-(4-((pyrazin-2-yloxy)methyl)phenoxy)azetidin-1-yl)-2-(1H-pyrrol-1-yl) benzoate]	> 50
COc1ccc(OCc2ccc(OC3CN(c4cccc(C(=O)O)c4-n4cccc4)C3)cc2)cn1 [Example 4a, 3-(3-(4-(((6-methoxypyridin-3-yl)oxy)methyl)phenoxy)azetidin-1-yl)-2-(1H-pyrrol-1-yl) benzoic acid]	> 50
CCOC(=O)c1cccc(N2CC(Oc3ccc(COc4cccnc4)cc3)C2)c1-n1cccc1 [Example 1b, ethyl 3-(3-(4-((pyridin-3-yloxy)methyl)phenoxy)azetidin-1-yl)-2-(1H-pyrrol-1-yl) benzoate]	< 1
COC(=O)c1cccc(N2CC(Oc3ccc(NC(=O)Cc4cccnc4)cc3)C2)c1 [Example 49, methyl 3-(3-(4-(2-(pyridin-3-yl)acetamido)phenoxy)azetidin-1-yl) benzoate]	1 to 10
COC(=O)c1cccc(N2CC(Oc3ccc(Cn4ccnc4)cc3)C2)c1-n1cccc1 [Example 56, methyl 3-(3-(4-((1H-imidazol-1-yl)methyl)phenoxy)azetidin-1-yl)-2-(1H-pyrrol-1-yl) benzoate]	10 to 50
COC(=O)c1cccc(N2CC(Oc3ccc(CNc4cccnc4)cc3)C2)c1-c1ccccc1 [Example 39, methyl 6-(3-(4-((pyridin-3-ylamino)methyl)phenoxy)azetidin-1-yl)-[1,1′-biphenyl]-2-carboxylate]	> 50
O=C(Cc1ccc(OC2CN(c3ccccc3)C2)cc1)Nc1cccnc1 [Example 43c, 2-(4-((1-phenylazetidin-3-yl)oxy)phenyl)-N-(pyridin-3-yl) acetamide]	10 to 50
COC(=O)c1cccc(N2CC(Oc3ccc(NC(=O)Cc4cccnc4)cc3)C2)c1-c1ccccc1 [Example 45, methyl 6-(3-(4-(2-(pyridin-3-yl)acetamido)phenoxy)azetidin-1-yl)-[1,1′-biphenyl]-2-carboxylate]	< 1
COC(=O)c1cccc(N2CC(Oc3ccc(COc4cccnc4)cc3)C2)c1-n1cccc1 [Example 1, methyl 3-(3-(4-((pyridin-3-yloxy)methyl)phenoxy)azetidin-1-yl)-2-(1H-pyrrol-1-yl) benzoate]	1 to 10
O=C(O)c1cccc(N2CC(Oc3ccc(COc4cncnc4)cc3)C2)c1-n1cccc1 [Example 14a, 3-(3-(4-((pyrimidin-5-yloxy)methyl)phenoxy)azetidin-1-yl)-2-(1H-pyrrol-1-yl) benzoic acid]	1 to 10

Structure (SMILES)	EC50 [µM]
COC(=O)c1cccc(N2CC(Oc3ccc(/C=C/c4cccnc4)cc3)C2)c1-c1ccccc1 [Example 36, methyl (E)-6-(3-(4-(2-(pyridin-3-yl)vinyl)phenoxy)azetidin-1-yl)-[1,1′-biphenyl]-2-carboxylate]	10 to 50
COC(=O)c1cccc(N2CC(Oc3ccc(COc4cccnc4)c(F)c3)C2)c1-n1cccc1 [Example 20, methyl 3-(3-(3-fluoro-4-((pyridin-3-yloxy)methyl)phenoxy)azetidin-1-yl)-2-(1H-pyrrol-1-yl) benzoate]	1 to 10
COC(=O)c1cccc(C#Cc2ccc(CC(=O)Nc3cccnc3)cc2)c1-c1ccc2cc[nH]c2c1 [Example 61, methyl 2-(1H-indol-6-yl)-3-((4-(2-oxo-2-(pyridin-3-ylamino)ethyl)phenyl)ethynyl) benzoate]	< 1
O=C(NO)c1cccc(N2CC(Oc3ccc(CNc4cccnc4)cc3)C2)c1-c1ccccc1 [Example 39b, N-hydroxy-6-(3-(4-((pyridin-3-ylamino)methyl)phenoxy)azetidin-1-yl)-[1,1′-biphenyl]-2-carboxamide]	< 1
COc1cncc(OCc2ccc(OC3CN(c4cccc(C(=O)O)c4-n4cccc4)C3)cc2)c1 [Example 6a, 3-(3-(4-(((5-methoxypyridin-3-yl)oxy)methyl)phenoxy)azetidin-1-yl)-2-(1H-pyrrol-1-yl) benzoic acid]	> 50
O=C(Cc1cccnc1)Nc1ccc(OC2CN(c3cccc(C(=O)O)c3-c3cccc(Cl)c3)C2)cc1 [Example 48a, 3′-chloro-6-(3-(4-(2-(pyridin-3-yl)acetamido)phenoxy)azetidin-1-yl)-[1,1′-biphenyl]-2-carboxylic acid]	10 to 50
Cc1ccc(OCc2ccc(OC3CN(c4cccc(C(=O)O)c4-n4cccc4)C3)cc2)cn1 [Example 5a, 3-(3-(4-((6-methylpyridin-3-yloxy)methyl)phenoxy)azetidin-1-yl)-2-(1H-pyrrol-1-yl) benzoic acid]	> 50
COC(=O)c1cccc(N2CC(Oc3ccc(COc4cnc5ccccc5c4)cc3)C2)c1-n1cccc1 [Example 9, methyl 2-(1H-pyrrol-1-yl)-3-(3-(4-((quinolin-3-yloxy)methyl)phenoxy)azetidin-1-yl) benzoate]	> 50
CNC(=O)c1cccc(N2CC(Oc3ccc(COc4cccnc4)cc3)C2)c1-n1cccc1 [Example 1d, N-methyl-3-(3-(4-((pyridin-3-yloxy)methyl)phenoxy)azetidin-1-yl)-2-(1H-pyrrol-1-yl) benzamide]	< 1
O=C(Cc1ccc(C#Cc2cccc(C(=O)NO)c2-c2ccccc2)cc1)Nc1cccnc1 [Example 60b, N-hydroxy-6-((4-(2-oxo-2-(pyridin-3-ylamino)ethyl)phenyl)ethynyl)-[1,1′-biphenyl]-2-carboxamide]	< 1
O=C(NO)c1cccc(N2CC(Oc3ccc(CNc4cccnc4)cc3)C2)c1-n1cccc1 [Example 23b, N-hydroxy-3-(3-(4-((pyridin-3-ylamino)methyl)phenoxy)azetidin-1-yl)-2-(1H-pyrrol-1-yl) benzamide]	< 1
Cc1cc(COc2cccnc2)ccc1OC1CN(c2cccc(C(=O)O)c2-n2cccc2)C1 [Example 16a, 3-(3-(2-methyl-4-((pyridin-3-yloxy)methyl)phenoxy)azetidin-1-yl)-2-(1H-pyrrol-1-yl) benzoic acid]	> 50
O=C(Nc1ccc(OC2CN(c3cccc(C(=O)O)c3-n3cccc3)C2)cc1)c1cccnc1 [Example 31a, 3-(3-(4-(nicotinoamido)phenoxy)azetidin-1-yl)-2-(1H-pyrrol-1-yl) benzoic acid]	10 to 50
COC(=O)c1cccc(N2CC(Oc3ccc(CNc4cccnc4)cc3)C2)c1-n1cccc1 [Example 23, methyl 3-(3-(4-((pyridin-3-ylamino)methyl)phenoxy)azetidin-1-yl)-2-(1H-pyrrol-1-yl) benzoate]	10 to 50
O=C(O)c1cccc(N2CC(Oc3ccc(COc4ccsn4)cc3)C2)c1-n1cccc1 [Example 33a, 3-(3-(4-((isothiazol-3-yloxy)methyl)phenoxy)azetidin-1-yl)-2-(1H-pyrrol-1-yl) benzoic acid]	> 50
COC(=O)c1cccc(N2CC(Oc3ccc(Oc4cccnc4)cc3)C2)c1-n1cccc1 [Example 25, methyl 3-(3-(4-(pyridin-3-yloxy)phenoxy)azetidin-1-yl)-2-(1H-pyrrol-1-yl) benzoate]	> 50
COC(=O)c1cccc(N2CC(Oc3ccc(COc4ccc(OC)nc4)cc3)C2)c1-n1cccc1 [Example 4, methyl 3-(3-(4-(((6-methoxypyridin-3-yl)oxy)methyl)phenoxy)azetidin-1-yl)-2-(1H-pyrrol-1-yl) benzoate]	> 50
